From patent publication US10034839B2, “Compositions and methods for delivery of kinase inhibiting peptides” (PURDUE RESEARCH FOUNDATION, priority 2012, dated 2018)

What was measured:
[1] = KAFAK degradability assay in serum; assay type: in vitro ADME; settings: for recovery at 12 hours / Integral of KAFAK Peak between 30-31% Acetonitrile: 12 hours at 37° C., then 24 hours at 4° C. (nanoparticles: purify & release in 2x salt)
Description: Samples tested include: peptide alone, serum alone, peptide in serum, and KAFAK loaded 5% AMPS nanoparticles in serum. Each sample volume also contained 0.5× PBS except when stated. Samples containing peptide initially contained 0.5 mg of peptide alone or 1.12 mg of loaded 5% AMPS particles with an equivalent amount of 0.5 mg peptide. Samples with serum were 0.5× serum and 0.5×PBS. Samples without serum were 0.5×PBS and 0.5× MilliQ water. Peptide alone, serum alone, peptide in serum, loaded nanoparticles alone, and loaded nanoparticles in serum were incubated for 12 hours at 37° C. on a shaker. After the 12 hour incubation, samples not containing nanoparticles were placed in the fridge at 4° C. for 24 hours before evaluation. Samples containing nanoparticles were centrifuged for 2 hours at room temperature at 30,000 rpm in an Optima L-90k Ultracentrifuge (Beckman Coulter, Indianapolis, Ind., USA). The nanoparticle pellet was briefly washed with MilliQ water and then resuspended in solution of 0.5×PBS and 0.5× MilliQ water. Samples were then placed in the fridge for 24 hours. Before the 24 hour nanoparticle sample was placed in the fridge to incubate, but after the pellet was dissolved, an additional amount of 0.257 molar concentration of NaCl was added to induce peptide release. This brought the final NaCl concentration to 0.342 molar or twice normal salt concentration in PBS. Additional NaCl was added to facilitate total release by introducing additional counter ions. Samples were evaluated by reverse phase chromotography on a FPLC (AKTA Explorer, GE Healthcare, Pittsburgh Pa., USA) with a 22/250 C18 prep-scale column (Grace Davidson, Deerfield, Ill., USA) and an acetonitrile gradient with 0.1% trifluoroacetic acid. Peptide was quantified by integrating the area under the peak of the FPLC. Peptide molecular weight was confirmed by time of flight MALDI mass spectrometry with a 4800 Plus MALDI TOF/TOF Analyzer (Applied Biosystems, Foster City, Calif., USA).

[2] = test system: IL-6 production in cartilage plugs; assay: IL-6 ELISA in bovine knee ex vivo inflammatory model; settings: IL-1β stimulated aggrecan depleted plugs, treatment every two days
Description: Cartilage plugs were obtained from three month old bovine knee joints obtained from an abattoir within 24 hours of slaughter (Dutch Valley Veal, South Holland, Ill., USA). The plugs were removed from the load bearing region of the femoral condyle using a 3 mm diameter cork borer. They were then washed three times in serum free medium and equilibrated for three days in 5% FBS supplemented media. Osteoarthritis (OA)-like conditions were simulated by removal of native aggrecan using a previously described protocol. Briefly, plugs were treated with 0.5% (w/v) trypsin in HBSS for 3 hours at 37° C. After trypsin treatment plugs were washed three times in HBSS and incubated with 20% FBS to inactivate residual trypsin activity. Inflammation was initiated in the plugs by treating with 20 ng/mL II-1β. Nanoparticle treatments as specified in Table 1, were added after day two of culture. Fresh IL-1β and nanoparticles were added every two days for an eight day culture period. Media aliquots were collected and stored in −80° C. till further analysis.
IL-6 production was determined with a bovine IL-6 ELISA development kit (Thermo Scientific, Rockford, Ill., USA). Capture antibody was coated overnight onto Nunc MaxiSorp 96-well plates. […] The plate was read on absorbance plate reader at 450 nm with a correction at 550 nm. […]

[3] = previously reported; cited from earlier work
THP-1 cells = settings: THP1; corresponds to 60 μg dose of loaded particles; cited from earlier work
blood = assay: Hemolysis assay ASTM F756; assay type: cell-based; settings: nanoparticles 1.5 mg/ml, 37° C., 3 hours; Triton X-100 .01% by volume
Description: After 1000 seconds, experiments in the presence of heparin were stopped due to lack of clotting. Hemolytic assay ASTM standard protocol F756 was used to check if hemolysis occurred upon the addition of poly(NIPAm-MBA-AMPS) to the blood.
Hemolysis assays were performed following ASTM F756 with a BioSpec-1601 spectrophotometer (Shimadzu, Columbia, Md., USA). Determination of total blood hemoglobin was accomplished by using Drabkin's reagent and measuring the absorbance of free hemoglobin in solution at 540 nm. The total blood hemoglobin concentration was used to adjust the hemoglobin content of the blood sample to 10 mg±1 mg by adding blood and an equivalent amount of IX PBS solution. Percent hemolysis was normalized by dividing total hemolysis determined by a 0.01% v/v of Triton X-100, subtracting the absorbance of blood only, and setting absorbance of PBS to zero. Blood, 1 ml, was incubated with 100 μl of a 1.5 mg/ml solution of the nanoparticles in PBS at 37° C. for three hours under gentle shaking. After three hours samples were centrifuged at 750 g for 15 minutes. Supernatant was removed, added 1:1 to equivalent volume of Drabkins reagent, and incubated for 15 minutes before measurement. Absorbance measurements at 540 nm were then recorded using a spectrophotometer.

[4] = test system: citrated bovine whole blood; assay: Activated partial thromboplastin time (whole blood coagulation time); settings: for Whole Blood Coagulation Time (s) Average (n = 3): nanoparticles 1.5 mg/ml final concentration in blood, collagen 6 mg/ml, heparin .001 mg/ml; for effect on coagulation: whole blood, nanoparticles 1.5 mg/ml
Description: Activated partial thromboplastin time (aPTT) was measured using a Hemochron® Response whole blood coagulation system. 2 ml citrated bovine whole blood and 200 μL nanoparticles in phosphate buffered saline (PBS) pH 7.4 (1.5 mg/ml final concentration in blood) were added to Hemochron® tubes containing colloidal kaolin activating agent and 0.02% thimerosal preservative agent. PBS was calcium and magnesium free. The tubes were then measured and aPTT was recorded. The aPTT for each sample was measured in triplicate. […] Louis, Mo., USA). Measurements with heparin were stopped after 1000 seconds.
As part of a preliminary assessment of utilizing poly(NIPAm-MBA-AMPS) as a blood contacting drug delivery vehicle, whole blood studies were done to determine the hemocompatibility of this system.

## CC(C)C[C@H](NC(=O)[C@H](C)NC(=O)[C@H](CCCCN)NC(=O)[C@H](CCCNC(=N)N)NC(=O)[C@H](Cc1ccc(O)cc1)NC(=O)[C@H](CC(C)C)NC(=O)[C@H](CCCNC(=N)N)NC(=O)[C@H](C)NC(=O)[C@H](C)NC(=O)[C@H](CC(C)C)NC(=O)[C@H](CCCCN)NC(=O)[C@H](C)NC(=O)[C@H](Cc1ccccc1)NC(=O)[C@H](C)NC(=O)[C@@H](N)CCCCN)C(=O)N[C@@H](C)C(=O)N[C@@H](CCCNC(=N)N)C(=O)N[C@@H](CCC(N)=O)C(=O)N[C@@H](CC(C)C)C(=O)NCC(=O)N[C@H](C(=O)N[C@@H](C)C(=O)N[C@@H](C)C(N)=O)C(C)C [KAFAK]
[1]; 0.5× PBS and 0.5× MilliQ water (without serum), without serum
  recovery at 12 hours: 100%
[1]; in serum
  Integral of KAFAK Peak between 30-31% Acetonitrile: 0 mAU * ml
  recovery at 12 hours: 0%
[1]; serum, 37° C., without a carrier
  time within which KAFAK peptide degraded: ≤ 12 h
[1]; without serum
  Integral of KAFAK Peak between 30-31% Acetonitrile: 593.3 mAU * ml
[2]
  effect on IL-6 production: lack of therapeutic activity
[3]
  serum half-life: less than 12 hours
THP-1 cells
  upper toxicity limit: 30 µM

## Triton X-100
blood
  Normalized Whole Blood % Hemolysis Average (n = 3): 100%

## Collagen
[4]
  Whole Blood Coagulation Time (s) Average (n = 3): 26 s
  effect on coagulation: induce clotting

## Heparin
[4]
  Whole Blood Coagulation Time (s) Average (n = 3): >1000 s
  effect on coagulation: inhibit coagulation
